In EP1641803B1, “THIENOPYRIMIDINE DERIVATIVES AS POTASSIUM CHANNEL INHIBITORS” (Xention Limited, priority 2003, dated 2004):

Target: hKv1.5 (Homo sapiens, UniProt P22460)
Test: Kv1.5 Autopatch Electrophysiology (whole cell patch-clamp)
Format: cell-based
Conditions: compound at 1µM, room temperature (22-24°C), held at -80mV, step to 0mV for 1000ms, total charge measured
Method: The external bathing solution contained (in mM): 150 NaCl, 10 KCl, […], 3 MgCl2, 1 CaCl2, 10 HEPES, pH 7.4. Patch pipettes were filled with an electrode solution of composition (in mM): 160 KCl, 0.5 MgCl2, 10 HEPES, 1 EGTA, pH 7.4 with KOH.
Compounds were dissolved in DMSO (100 %) and made up in the external bather at a concentration of 1µM. All experiments were conducted at room temperature (22-24°C).
A cell suspension (10 ml), with a density of 100,000 cells/ml, was aliquoted into a 15ml centrifuge tube and transferred to an incubator (37°C, 5% CO2) for approximately one hour before use. Following 60 min incubation, a tube was taken and centrifuged at 1000 rpm for 4 mins at room temperature. 9.5 ml supernatant was thence discarded, leaving a cell pellet at the bottom of the tube. The pellet was then resuspended using 100 µl of cold (4 °C), filtered (0.22 µm), 0.2 % BSA/bather solution (0.02g BSA/10ml bather). The bottom of the tube was manually agitated gently until the solution became cloudy with cells. The 100 µl cell resuspension solution was then stored on the bench at 4 °C (using a Peltier-based temperature control device) until used.
A length of capillary glass (1B150F-4, WPI) was dipped into the cell suspension solution, such that - 3 cm column of fluid was taken up by capillary action. A Ag/AgCl wire was dropped into the non-dipped end of the capillary also. The outside of the solution-filled end of the capillary was then dried and the capillary was loaded into the AutoPatch™. Borosilicate glass patch pipettes (from 1.5mm OD, thin-walled filamented, GC150-TF capillary glass, Harvard) were pulled using a DMZ pipette puller (Zeitz Instruments), and were back-filled using the internal pipette solution, being careful that no bubbles remain at the tip or in the body of the pipette. Patch pipettes typically had resistances of 2.3-3.5 MΩ. Once filled, the pipette tip and a proportion of the shaft (- 15 mm) were dipped into Sigmacote (Sigma). The recording pipette was then loaded into the AutoPatch™.
Automated patch-clamping was initiated by the operator, but thereafter AutoPatch.exe continued the experiment providing that pre-set conditions and criteria were satisfied.
Whole cell patch-clamp recordings were made using the AutoPatch™ rig, which incorporated an EPC9 amplifier (HEKA, Germany) under control of Pulse software (v8.54, HEKA, Germany), a motion controller with 2 translators (Newport, UK), valve controller (VF1) and a c-level suction device all at room temperature (22-24°C). This equipment was completely under the control of AutoPatch.exe and operator intervention was only made when there was a requirement to refill the drug reservoirs or to prevent the loss of a cell due to a technical error. Cells with an Rseries greater than 18 MΩ were discounted from the experiment.
Qualification stages prior to perfusion and drug application ensured that the observed current met the criteria for the experiment. Only those cells with an IK > 500 pA were used for experiments. Cells were continuously perfused with external solution at a flow rate of 1.8-2 ml/minute. […] Online analysis of the hKv1.5 current during the application of compounds was performed by the AutoPatch™ software. Voltage-step protocols and analysis of data was performed as described for conventional electrophysiology.
Electrophysiology voltage-step protocols and analysis of data was performed as follows. Data was sampled at 5kHz, and filtered with a -3 dB bandwidth of 2.5kHz. Cells were held at a voltage of -80mV. Currents were evoked to a voltage step for 1000ms in duration at 0mV every 5s. Currents were analysed using Pulsefit software (v8.54, HEKA, Germany), with the total charge measured during the whole of the voltage step. All other plots were produced using Igor Pro (WaveMetrics).

Sequence of hKv1.5 (P22460 whole entry): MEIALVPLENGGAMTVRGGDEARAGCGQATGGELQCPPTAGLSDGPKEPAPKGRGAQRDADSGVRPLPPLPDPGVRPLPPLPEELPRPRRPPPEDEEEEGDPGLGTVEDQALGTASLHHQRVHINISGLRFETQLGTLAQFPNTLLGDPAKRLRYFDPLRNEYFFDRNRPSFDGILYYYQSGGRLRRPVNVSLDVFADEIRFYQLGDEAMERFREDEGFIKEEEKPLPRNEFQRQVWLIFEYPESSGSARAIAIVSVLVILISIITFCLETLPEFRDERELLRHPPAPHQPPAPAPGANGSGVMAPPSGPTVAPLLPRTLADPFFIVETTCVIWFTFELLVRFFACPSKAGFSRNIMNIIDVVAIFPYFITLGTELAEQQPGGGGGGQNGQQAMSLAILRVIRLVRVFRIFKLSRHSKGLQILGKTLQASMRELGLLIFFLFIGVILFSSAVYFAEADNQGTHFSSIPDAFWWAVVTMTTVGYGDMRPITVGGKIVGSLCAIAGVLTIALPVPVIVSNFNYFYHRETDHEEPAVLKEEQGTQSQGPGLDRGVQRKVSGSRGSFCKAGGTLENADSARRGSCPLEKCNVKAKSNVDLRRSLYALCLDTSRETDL

| SMILES | inhibition at 1 µM | % Inhibition at 1µM |
| --- | --- | --- |
| COc1ccc(-c2csc3ncnc(NCc4ccccn4)c23)cc1 [Example 138, [5-(4-Methoxy-phenyl)-thieno[2,3-d]pyrimidin-4-yl]-pyridin-2-ylmethyl-amine] | 92.6% |  |
| CC(Nc1ncnc2scc(-c3ccccc3)c12)c1ccccn1 (centres unmarked) [Example 149, (5-Phenyl-thieno[2,3-d]pyrimidin-4-yl)-(1-pyridin-2-yl-ethyl)-amine] | 78% |  |
| CCOC(=O)c1cccnc1CNc1ncnc2scc(-c3ccccc3)c12 [Example 160, 2-[(5-Phenyl-thieno[2,3-d]pyrimidin-4-ylamino)-methyl]-nicotinic acid ethyl ester] | 80% |  |
| Cc1cccc(CNc2ncnc3sc(C)c(-c4ccccc4)c23)n1 [Example 166, 6-methyl-N-[(6-methylpyridin-2-yl)methyl]-5-phenylthieno[2,3-d]pyrimidin-4-amine] | 97% |  |
| COCCNc1nc(NCc2ccccn2)c2c(-c3ccccc3)csc2n1 [Example 189, N^2-(2-Methoxyethyl)-5-phenyl-N^4-(pyridin-2-ylmethyl)thieno[2,3-d]pyrimidine-2,4-diamine] | 97.4% |  |
| Nc1nc(NCc2ccccn2)c2c(-c3ccccc3)csc2n1 [Example 192, 5-Phenyl-N-4-pyridin-2-ylmethyl-thieno[2,3-d]pyrimidine-2,4-diamine] | 90% |  |
| CN(C)c1nc(NCc2ccccn2)c2c(-c3ccccc3)csc2n1 [Example 198, N^2,N^2-Dimethyl-5-phenyl-N^4-pyridin-2-ylmethyl-thieno[2,3-d]pyrimidine-2,4-diamine] | 98.1% |  |
| CNC(=O)Cc1nc(NCc2ccccn2)c2c(-c3ccccc3)csc2n1 [Example 287, N-Methyl-2-{5-phenyl-4-[{pyridin-2-ylmethyl)amino]thieno[2,3-d]pyrimidin-2-yl}acetamide] | 91% |  |
| CN(C)Cc1nc(NCc2ccccn2)c2c(-c3ccccc3)csc2n1 [Example 302, (2-Dimethylaminomethyl-5-phenylthieno[2,3-d]pyrimidin-4-yl)pyridin-2-ylmethylamine] | 76% |  |
| CNCc1nc(NCc2ccccn2)c2c(-c3ccccc3)csc2n1 [Example 304, (2-Methylaminomethyl-5-phenyl-thieno[2,3-d]pyrimidin-4-yl)-pyridin-2-ylmethyl-amine] | 58% |  |
| COCc1nc(NCc2ccccn2)c2c(-c3ccccc3)csc2n1 [Example 305, (2-Methoxymethyl-5-phenylthien[2,3-d]primidin-4-yl)pyridin-2-ylmethylamine] | 94% |  |
| CN(C)c1ccc(-c2csc3ncnc(NCc4ccccn4)c23)cc1 [Example 315, [5-(4-Dimethylamino-phenyl)-thieno[2,3-d]pyrimidin-4-yl]-pyridin-2-ylmethyl-amine] | 98% |  |
| FC(F)(F)Oc1ccc(-c2csc3ncnc(NCc4ccccn4)c23)cc1 [Example 317, Pyridin-2-ylmethyl-[5-(4-trifluoromethoxy-phenyl)-thieno[2,3-d]pyrimidin-4-yl]-amine] | 98% |  |
| Cc1ccc(-c2csc3ncnc(NCc4ccccn4)c23)cc1 [Example 318, Pyridin-2-ylmethyl-(5-p-tolyl-thieno[2,3-d]pyrimidin-4-yl)-amine] | 98% |  |
| COCOc1ccc(-c2csc3ncnc(NCc4ccccn4)c23)cc1 [Example 324, [5-(4-Methoxymethoxy-phenyl)-thieno[2,3-d]pyrimidin-4-yl]-pyridin-2-ylmethyl-amine] | 93% |  |
| FC(F)(F)c1cc(-c2csc3ncnc(NCc4ccccn4)c23)ccc1Cl [Example 330, [5-(4-Chloro-3-trifluoromethyl-phenyl)-thieno[2,3-d]pyrimidin-4-yl]-pyridin-2-ylmethyl-amine] | 79% |  |

More lines, now with the values ahead:

| inhibition at 1 µM | % Inhibition at 1µM | SMILES |
| --- | --- | --- |
| 92% |  | Cc1cccnc1CNc1ncnc2scc(-c3ccccc3)c12 [Example 156, (3-methyl-pyridin-2-ylmethyl)-(5-phenyl-thieno[2,3-d]pyrimidin-4-yl)-amine] |
| 99% |  | Cc1cccc(CNc2ncnc3sc(Br)c(-c4ccccc4)c23)n1 [Example 167, 6-bromo-N-[(6-methylpyridin-2-yl)methyl]-5-phenylthieno[2,3-d]pyrimidin-4-amine] |
| 87% |  | OCC(O)CNc1nc(NCc2ccccn2)c2c(-c3ccccc3)csc2n1 (centres unmarked) [Example 214, 3-{5-Phenyl-4-[(pyridin-2-ylmethyl)-amino]-thieno[2,3-d]pyrimidin-2-ylamino}-propane-1,2-diol] |
| 82% |  | CN1CCN(c2nc(NCc3ccccn3)c3c(-c4ccccc4)csc3n2)CC1 [Example 215, [2-(4-Methyl-piperazin-1-yl)-5-phenyl-thieno[2,3-d]pyrimidin-4-yl]-pyridin-2-ylmethyl-amine] |
| 63% |  | c1ccc(-c2csc3nc(CN4CCOCC4)nc(NCc4ccccn4)c23)cc1 [Example 303, (2-Morpholin-4-ylmethyl-5-phenyl-thieno[2,3-d]pyrimidin-4-yl)-pyridin-2-ylmethyl-amine] |
| 98% |  | Cc1ccc(-c2csc3ncnc(NCc4ccccn4)c23)cc1C [Example 316, [5-(3,4-Dimethyl-phenyl)-thieno[2,3-d]pyrimidin-4-yl]-pyridin-2-ylmethyl-amine] |
|  | 97.3% | c1ccc(CNc2ncnc3scc(-c4ccc5c(c4)OCO5)c23)nc1 [Example 319, (5-Benzo[1,3]dioxol-5-yl-thieno[2,3-d]pyrimidin-4-yl)-pyridin-2-ylmethyl-amine] |
| 83% |  | COC(=O)c1ccc(-c2csc3ncnc(NCc4ccccn4)c23)cc1 [Example 327, 4-{4-[(Pyridin-2-ylmethyl)-amino]-thieno[2,3-d]pyrimidin-5-yl}-benzoic acid methyl ester] |
| 83% |  | COc1ccc(-c2csc3ncnc(NCc4ccccn4)c23)cn1 [Example 328, [5-(6-Methoxy-pyridin-3-yl)-thieno[2,3-d]pyrimidin-4-yl]-pyridin-2-ylmethyl-amine] |
| 81% |  | Clc1ccc(-c2csc3ncnc(NCc4ccccn4)c23)c(Cl)c1 [Example 329, [5-(2,4-Dichloro-phenyl)-thieno[2,3-d]pyrimidin-4-yl]-pyridin-2-ylmethyl-amine] |
